# From PMC9537572, “Elucidation of the binding mechanism of astragaloside IV derivative with human serum albumin and its cardiotoxicity in zebrafish embryos” (Frontiers in Pharmacology, 2022)
# Entries after “also recorded” stand apart in the source; their conditions may differ.
# How the values were obtained:
# mice = settings: even at high treatment doses, ref Qing et al., 2019, Sun et al.; cited from earlier work
# zebrafish embryos [1] = test: Astemizole-induced cardiotoxicity in zebrafish embryos: heart rate and SV-BA spacing; assay type: in vivo; settings: 4 µM astemizole; for Heart rate (beats/min) (Mean±SE) / SV-BA spacing (µm) (Mean±SE): n = 10
# Procedure: A total of 270 wild-type AB zebrafish at 3 dpf were randomly selected, and 30 zebrafish were plated in each well of a six-well plates. The concentrations of LS-102 were 27.8, 83.3 and 250 µg/ml, AGS IV was 250 µg/mL. A normal control group (fish culture water) and a 4 µM astemizole model control group were also established. Ten zebrafish were randomly selected from each group, and the heart rate and venous sinus-to-arterial bulb distance (SV-BA) of zebrafish were observed under a dissecting microscope after 2 h, 6 h and 24 h of LS-102 and AGS IV treatment. Images were collected by photographing, and the ameliorative effect of LS-102 and AGS IV on astemizole-induced cardiotoxicity in zebrafish was evaluated by the statistical significance of the heart rate and the SV-BA interval index.
# HSA [2] = target: T1, HSA (Homo sapiens, UniProt P02768); test: Plasma protein binding rate by equilibrium dialysis and UHPLC-MS/MS; assay type: in vitro ADME
# Procedure: The binding rate of AGS IV/LS-102 and HSA was determined using a slightly modified equilibrium dialysis method ([Metsu et al., 2020]). […] The stock solutions of HSA (0.5 ml) and drug group (0.5 ml) were placed in a dialysis membrane bag that was ligated at both ends and then immersed in a test tube filled with 50 ml of PBS solution for 72 h at 4 °C. After equilibrium, a 0.5-ml solution of outer dialysate and internal dialysate was collected into a 2-ml EP tube, and 10 µL IS (digoxin, 0.1 mg/ml) solution was added to each tube. Both samples were added to 1.5 ml of acetonitrile and vortexed for 3 min, and then the samples were separated via centrifugation at 18,000 × g for 20 min. The supernatants were transferred to another EP tube and dried under a nitrogen stream. The residue was redissolved in 1 ml methanol, sonicated for 2 min, vortexed for 3 min, and centrifuged at 18,000 × g for 10 min. The supernatant was filtered with a 0.22 µm microporous syringe filter in a 2 ml sample vial, and 1 µL was injected into the UHPLC-MS/MS system for analysis. The plasma protein binding rate was calculated according to the following formula ([Talbert et al., 2002]): Plasma binding rate=Internal drug concentration−External drug concentration/Initial drug concentration ×100%
# HSA [3] = target: T1, HSA; test: Site marker competitive experiments (warfarin, ibuprofen) by equilibrium dialysis; assay type: in vitro ADME; settings: drug 0.476 mg/ml, n = 3, read-out: Plasma protein binding (converted)
# Procedure: The site marker competitive experiments were performed using two classical site probes, warfarin and ibuprofen, which were selected as the markers of subdomain IIA (site I) and subdomain IIIA (site II) separately of HAS ([Ghuman et al., 2005]). The procedure was consistent with the method described in section 2.5, except that the concentrations of AGS IV and LS-102 were both fixed at 0.476 mg/ml, while the external dialysis solution was changed to contain the probe with a final concentration of 0, 0.06, 0.3, 1.2 mg/ml PBS solution. Briefly, the AGS IV/LS-102 HSA mixture (0.5 ml drug and 0.5 ml HSA) was separately incubated with three different concentrations of probe to evaluate the effects of warfarin or ibuprofen on drug-protein binding influence. Three replicates of each concentration were prepared. After equilibrium dialysis, the internal and external dialysates were analyzed by UHPLC-MS/MS.
# zebrafish embryos [4] = test: Maximum tolerated concentration of LS-102 in zebrafish; assay type: in vivo; settings: for Mortality: 3 dpf zebrafish, n=30; for Deaths: of 30 zebrafish
# Procedure: Zebrafish embryos at 3 dpf were randomly selected and treated with LS-102 at concentrations of 1, 10, 100, 250 and 500 μg/ml in water, while the control group was left untreated. The mortality of zebrafish was recorded for each experimental group after 24 h of treatment.
# zebrafish embryos [5] = test: Astemizole-induced toxicity in zebrafish heart development; assay type: in vivo; settings: for Mortality: cotreated with 4 µM astemizole 48 h from 2 hpf
# Procedure: A total of 270 wild-type AB zebrafish at 2 h post-fertilization (2 hpf) were randomly selected, and 30 zebrafish were plated in each well of a six-well plates. The concentrations of LS-102 were 27.8, 83.3 and 250 µg/ml, while that of AGS IV was 250 µg/mL. A normal control group (fish culture water) and a 4 µM astemizole model control group were also established. After LS-102 and AGS IV were cotreated with astemizole for 48 h, zebrafish heart development was observed and photographed under a microscope to evaluate the ameliorative effect of LS-102 and AGS IV on astemizole-induced toxicity in zebrafish heart development.
# [6] = 83.3 µg/mL, 4 µM astemizole, 48 h, n=30
# T1 sequence (P02768 25-609): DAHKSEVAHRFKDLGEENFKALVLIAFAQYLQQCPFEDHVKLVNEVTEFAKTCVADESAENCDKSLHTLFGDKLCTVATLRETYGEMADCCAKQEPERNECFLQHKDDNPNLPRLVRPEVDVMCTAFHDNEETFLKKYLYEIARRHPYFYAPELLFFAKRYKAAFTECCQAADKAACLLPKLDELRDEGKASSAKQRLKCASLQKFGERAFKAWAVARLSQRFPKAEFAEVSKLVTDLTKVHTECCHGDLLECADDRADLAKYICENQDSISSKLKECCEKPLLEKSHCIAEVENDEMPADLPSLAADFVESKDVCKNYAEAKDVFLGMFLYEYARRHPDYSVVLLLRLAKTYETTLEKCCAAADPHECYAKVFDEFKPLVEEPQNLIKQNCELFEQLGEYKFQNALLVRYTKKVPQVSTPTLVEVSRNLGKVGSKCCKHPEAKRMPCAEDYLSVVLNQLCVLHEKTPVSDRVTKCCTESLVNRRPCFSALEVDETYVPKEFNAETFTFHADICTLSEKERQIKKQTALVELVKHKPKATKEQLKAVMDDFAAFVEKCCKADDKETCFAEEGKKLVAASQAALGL
compound,measurement,setting,value
"CC(C)(O)C1CCC(C)(C2C(O)CC3(C)C4CC(OC5OC(C(=O)O)C(O)C(O)C5O)C5C(C)(C)C(OC6OCC(O)C(O)C6O)CCC56CC46CCC23C)O1 (centres unmarked) [LS-102, astragalosidic acid]",Abnormalities or death in mice (in words),mice,no abnormalities or death
same,Heart rate (beats/min) (Mean±SE),"zebrafish embryos [1]; 27.8 µg/ml, 2 h",156 ± 1 beats/min
same,SV-BA spacing (µm) (Mean±SE),"zebrafish embryos [1]; 27.8 µg/ml, 2 h",179 ± 7 µm
same,Heart rate (beats/min) (Mean±SE),"zebrafish embryos [1]; 27.8 µg/ml, 6 h",158 ± 1 beats/min
same,SV-BA spacing (µm) (Mean±SE),"zebrafish embryos [1]; 27.8 µg/ml, 6 h",204 ± 6 µm
same,Heart rate (beats/min) (Mean±SE),"zebrafish embryos [1]; 27.8 µg/ml, 24 h",45 ± 23 beats/min
same,SV-BA spacing (µm) (Mean±SE),"zebrafish embryos [1]; 27.8 µg/ml, 24 h",250 ± 6 µm
same,Heart rate (beats/min) (Mean±SE),"zebrafish embryos [1]; 83.3 µg/ml, 2 h",157 ± 2 beats/min
same,SV-BA spacing (µm) (Mean±SE),"zebrafish embryos [1]; 83.3 µg/ml, 2 h",157 ± 3 µm
same,Heart rate (beats/min) (Mean±SE),"zebrafish embryos [1]; 83.3 µg/ml, 6 h",153 ± 1 beats/min
same,SV-BA spacing (µm) (Mean±SE),"zebrafish embryos [1]; 83.3 µg/ml, 6 h",168 ± 4 µm
same,Heart rate (beats/min) (Mean±SE),"zebrafish embryos [1]; 83.3 µg/ml, 24 h",128 ± 21 beats/min
same,SV-BA spacing (µm) (Mean±SE),"zebrafish embryos [1]; 83.3 µg/ml, 24 h",228 ± 7 µm
same,Heart rate (beats/min) (Mean±SE),"zebrafish embryos [1]; 250 µg/ml, 2 h",160 ± 1 beats/min
same,SV-BA spacing (µm) (Mean±SE),"zebrafish embryos [1]; 250 µg/ml, 2 h",151 ± 3 µm
same,Heart rate (beats/min) (Mean±SE),"zebrafish embryos [1]; 250 µg/ml, 6 h",167 ± 1 beats/min
same,SV-BA spacing (µm) (Mean±SE),"zebrafish embryos [1]; 250 µg/ml, 6 h",158 ± 6 µm
same,Heart rate (beats/min) (Mean±SE),"zebrafish embryos [1]; 250 µg/ml, 24 h",162 ± 7 beats/min
same,SV-BA spacing (µm) (Mean±SE),"zebrafish embryos [1]; 250 µg/ml, 24 h",174 ± 9 µm
same,Effect on astemizole-induced heart rate slowing and SV-BA spacing increase (in words),"zebrafish embryos [1]; 2 h and 6 h, 27.8, 83.3 and 250 µg/ml",improved the slowed heart rate and increased the SV-BA spacing
same,Effect on astemizole-induced heart rate slowing and SV-BA spacing increase (in words),zebrafish embryos [1]; 24 h,improved the slowed heart rate at 250 µg/ml and the increase in SV-BA spacing at 83.3 and 250 µg/ml
same,"Plasma protein binding rate, range over the concentrations",HSA [2]; across the three concentrations (0.238-0.714 mg/ml),68.24%–69.35
same,fraction unbound at 72 h,"HSA [2]; human, plasma, across the three concentrations (0.238-0.714 mg/ml), read-out: Plasma protein binding rate, range over the concentrations",0.306 to 0.331
same,"fraction unbound at 72 h, 0.238 mg/ml","HSA [2]; human, drug 0.238 mg/ml, equilibrium dialysis 72 h at 4 °C, n = 3, read-out: Protein binding rate (%, Mean±SD) (converted)",0.318
same,"fraction unbound at 72 h, 0.476 mg/ml","HSA [2]; human, drug 0.476 mg/ml, equilibrium dialysis 72 h at 4 °C, n = 3, read-out: Protein binding rate (%, Mean±SD) (converted)",0.306
same,"fraction unbound at 72 h, 0.714 mg/ml","HSA [2]; human, drug 0.714 mg/ml, equilibrium dialysis 72 h at 4 °C, n = 3, read-out: Protein binding rate (%, Mean±SD) (converted)",0.314
same,"fraction unbound at 72 h, 0.476 mg/ml",HSA [3]; with ibuprofen 0.06 mg/ml,0.368
same,"fraction unbound at 72 h, 0.476 mg/ml",HSA [3]; with ibuprofen 0.3 mg/ml,0.248
same,"fraction unbound at 72 h, 0.476 mg/ml",HSA [3]; with ibuprofen 1.2 mg/ml,0.28
same,"fraction unbound at 72 h, 0.476 mg/ml",HSA [3]; with warfarin 0.06 mg/ml,0.467
same,"fraction unbound at 72 h, 0.476 mg/ml",HSA [3]; with warfarin 0.3 mg/ml,0.411
same,"fraction unbound at 72 h, 0.476 mg/ml",HSA [3]; with warfarin 1.2 mg/ml,0.453
same,"fraction unbound at 72 h, 0.476 mg/ml",HSA [3]; without site markers,0.331
same,Mortality,"zebrafish embryos [4]; 1 µg/mL, 24 h",0%
same,Deaths,"zebrafish embryos [4]; 1 µg/mL, 24 h",0 tails
same,Mortality,"zebrafish embryos [4]; 10 µg/mL, 24 h",0%
same,Deaths,"zebrafish embryos [4]; 10 µg/mL, 24 h",0 tails
same,Mortality,"zebrafish embryos [4]; 100 µg/mL, 24 h",0%
same,Deaths,"zebrafish embryos [4]; 100 µg/mL, 24 h",0 tails
same,Mortality,"zebrafish embryos [4]; 250 µg/mL, 24 h",13.3%
same,Deaths,"zebrafish embryos [4]; 250 µg/mL, 24 h",4 tails
same,Mortality,"zebrafish embryos [4]; 500 µg/mL, 24 h",100%
same,Deaths,"zebrafish embryos [4]; 500 µg/mL, 24 h",30 tails
same,Mortality (in words),"zebrafish embryos [4]; concentrations ranging from 1 to 100 µg/ml, 24 h",no mortality
same,Maximum-tolerated concentration (MTC),"zebrafish embryos [4]; zebrafish 3 dpf, 24 h treatment",100 µg/mL
same,Mortality,"zebrafish embryos [5]; 27.8 µg/mL, n=30",0%
same,Phenotype: absence of blood flow (share of zebrafish),zebrafish embryos [5]; [6],26.7%
same,"Phenotype: pericardial oedema, venous sinus stasis (share of zebrafish)",zebrafish embryos [5]; [6],83.3%
same,Phenotype: slowed blood flow (share of zebrafish),zebrafish embryos [5]; [6],56.7%
same,Mortality,"zebrafish embryos [5]; 83.3 µg/mL, n=30",0%
same,Phenotype (in words),"zebrafish embryos [5]; 250 µg/mL, 4 µM astemizole, 48 h, n=30",no significant toxicity; also recorded: No abnormalities seen
same,Mortality,"zebrafish embryos [5]; 250 µg/mL, n=30",30%
same,Effect on the developmental toxicity of zebrafish hearts induced by astemizole (in words),"zebrafish embryos [5]; 83.3 and 250 µg/ml, 4 µM astemizole, 48 h",ameliorating effect
